Measured values published in PMC9203742 (Nature Communications, 2022).
“And” between values parts separate entries of the source, which are not always exact repeats. Equal entries are not always repeated.

Key:
[1] = system: primary cortical neurons; assay: Fura-2 Ca2+ imaging (abnormal Ca2+ response) in cultured cortical neurons; settings: co-treated 30 µM LY367385, 1 µM FITM or 10 µM U73122
[2] = biological target: T1, cell-surface mGlu1 in cerebellar slices of mGlu1^CBC/CBC mice (Mus musculus, UniProt P97772, N264H); assay: Confocal live imaging of cell-surface mGlu1 with FITM-Cy3 in acute cerebellar slices, mGlu1^CBC/CBC; assay type: binding
T1 construct: from tissue; host or cells: acute cerebellar slices of homozygous mGlu1(N264H) knock-in (mGlu1CBC/CBC) mice
T1 sequence (P97772 19-1199 N264H limits assumed): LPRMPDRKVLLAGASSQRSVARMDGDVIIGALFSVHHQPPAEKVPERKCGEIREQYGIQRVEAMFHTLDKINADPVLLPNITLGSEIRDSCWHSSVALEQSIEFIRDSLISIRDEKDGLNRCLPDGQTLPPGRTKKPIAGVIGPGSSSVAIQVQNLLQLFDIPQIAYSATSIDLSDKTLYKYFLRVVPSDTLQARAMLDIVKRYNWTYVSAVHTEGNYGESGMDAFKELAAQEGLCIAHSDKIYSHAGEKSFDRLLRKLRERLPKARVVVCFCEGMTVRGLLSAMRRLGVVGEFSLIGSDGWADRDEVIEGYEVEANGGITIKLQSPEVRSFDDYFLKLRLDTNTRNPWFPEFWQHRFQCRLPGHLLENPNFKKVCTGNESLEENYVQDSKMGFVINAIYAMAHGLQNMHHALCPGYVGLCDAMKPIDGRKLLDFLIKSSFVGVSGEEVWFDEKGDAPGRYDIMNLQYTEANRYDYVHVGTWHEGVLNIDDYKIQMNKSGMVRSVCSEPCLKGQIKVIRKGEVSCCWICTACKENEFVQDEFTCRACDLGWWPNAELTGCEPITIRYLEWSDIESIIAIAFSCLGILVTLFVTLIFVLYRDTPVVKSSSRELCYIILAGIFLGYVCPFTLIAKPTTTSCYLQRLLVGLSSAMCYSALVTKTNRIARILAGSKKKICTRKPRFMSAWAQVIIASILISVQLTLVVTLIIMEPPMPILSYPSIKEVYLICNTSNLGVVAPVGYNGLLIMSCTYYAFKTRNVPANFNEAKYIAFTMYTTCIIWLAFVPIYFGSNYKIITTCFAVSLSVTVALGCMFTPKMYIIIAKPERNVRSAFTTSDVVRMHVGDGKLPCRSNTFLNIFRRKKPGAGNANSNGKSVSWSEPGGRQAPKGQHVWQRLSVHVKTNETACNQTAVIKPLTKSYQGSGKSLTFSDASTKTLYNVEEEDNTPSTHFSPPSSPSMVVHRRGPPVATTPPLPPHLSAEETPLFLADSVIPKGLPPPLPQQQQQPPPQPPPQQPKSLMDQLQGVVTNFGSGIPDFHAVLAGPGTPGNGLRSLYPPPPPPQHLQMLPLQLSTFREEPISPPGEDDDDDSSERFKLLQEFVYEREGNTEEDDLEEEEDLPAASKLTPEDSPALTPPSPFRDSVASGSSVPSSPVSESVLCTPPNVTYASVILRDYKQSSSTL
Protocol: (§1) Sagittal cerebellar slices were cut with a microslicer (Linear slicer Pro7; DOSAKA EM) in cutting solution buffer and then incubated in ACSF gassed with 5% CO2 and 95% O2 at room temperature.
(§2) The cerebellar slices prepared from mGlu1^+/+ or mGlu1^CBC/CBC mice, were incubated with 10 nM FITM-Cy3 and 10 µg/mL Hoechst33342 for 30 min at room temperature in a humidified atmosphere of 5% CO2 and 95% O2. As a negative control, the cerebellar slices were incubated with 10 nM FITM-Cy3, 10 µg/mL Hoechst33342, and 500 nM FITM. Then, the slices were subjected to confocal live imaging using a confocal microscope (LSM900, Carl Zeiss). The fluorescence intensity of Cy3 at the molecular layer were quantified by ZEN blue software (Carl Zeiss).

[3] = biological target: T2, cell-surface mGlu1 in cerebellar slices of mGlu1^+/+ mice (Mus musculus, UniProt P97772); assay: Confocal live imaging of cell-surface mGlu1 with FITM-Cy3 in acute cerebellar slices, mGlu1^+/+; assay type: binding
T2 construct: from tissue; host or cells: acute cerebellar slices of mGlu1+/+ (C57BL/6J) mice
T2 sequence (P97772 19-1199 limits assumed): as the sequence (P97772 19-1199 N264H limits assumed) above, with H246N counted along it
Protocol: as §1, §2

[4] = biological target: T3, mGlu1(N264H) mutant (Rattus norvegicus, UniProt P23385, N264H); assay: Fura-2 Ca2+ imaging in HEK293 cells expressing mGlu1(N264H); assay type: cell-based; settings: 10 µM LY367385, 1 µM FITM, 10 µM YM254890 or 1 µM U73122
T3 construct: expressed in transfected cells; host or cells: HEK293
T3 sequence (P23385 19-1199 N264H): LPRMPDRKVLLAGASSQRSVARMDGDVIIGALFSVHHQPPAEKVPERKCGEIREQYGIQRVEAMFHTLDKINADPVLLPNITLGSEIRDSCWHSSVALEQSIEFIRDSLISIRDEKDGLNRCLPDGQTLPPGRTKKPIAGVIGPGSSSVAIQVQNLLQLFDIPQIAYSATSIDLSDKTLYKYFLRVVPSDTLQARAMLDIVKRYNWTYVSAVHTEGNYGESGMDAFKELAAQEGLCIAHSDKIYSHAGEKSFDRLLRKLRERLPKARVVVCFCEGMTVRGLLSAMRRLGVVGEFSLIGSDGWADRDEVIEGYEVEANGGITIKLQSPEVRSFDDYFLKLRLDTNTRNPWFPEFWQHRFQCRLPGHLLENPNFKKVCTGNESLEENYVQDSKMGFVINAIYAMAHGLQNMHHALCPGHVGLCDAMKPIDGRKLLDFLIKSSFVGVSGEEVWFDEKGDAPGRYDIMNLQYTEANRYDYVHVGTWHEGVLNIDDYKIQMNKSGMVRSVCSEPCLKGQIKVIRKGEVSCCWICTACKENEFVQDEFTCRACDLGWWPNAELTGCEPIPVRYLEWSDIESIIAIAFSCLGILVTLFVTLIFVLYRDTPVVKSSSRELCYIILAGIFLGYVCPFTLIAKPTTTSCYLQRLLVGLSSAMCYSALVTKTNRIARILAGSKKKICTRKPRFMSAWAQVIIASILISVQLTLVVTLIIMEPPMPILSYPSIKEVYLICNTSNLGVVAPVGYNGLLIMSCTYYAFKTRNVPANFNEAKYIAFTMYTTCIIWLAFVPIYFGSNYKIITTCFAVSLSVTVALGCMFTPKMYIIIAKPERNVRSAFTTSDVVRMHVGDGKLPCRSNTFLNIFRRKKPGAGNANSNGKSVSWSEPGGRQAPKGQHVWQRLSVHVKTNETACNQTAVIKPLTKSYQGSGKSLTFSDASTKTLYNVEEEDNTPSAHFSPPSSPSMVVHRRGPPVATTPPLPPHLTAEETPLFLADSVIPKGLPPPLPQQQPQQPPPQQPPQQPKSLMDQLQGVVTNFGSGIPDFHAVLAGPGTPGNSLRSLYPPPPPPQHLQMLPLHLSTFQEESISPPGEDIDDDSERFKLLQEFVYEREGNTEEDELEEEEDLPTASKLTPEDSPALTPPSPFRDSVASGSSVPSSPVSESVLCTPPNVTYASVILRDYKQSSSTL

[5] = 10 nM FITM-Cy3 with excess (500 nM) FITM
[6] = mGlu1CBC/CBC, relative to Ave of mGlu1+/+ FITM (-) = 1
[7] = mGlu1+/+, relative to Ave of mGlu1+/+ FITM (-) = 1

CC(C)Nc1cc(-c2csc(N(C)C(=O)c3ccc(F)cc3)n2)ncn1 [FITM]
Effect of inhibitor on 30 µM Pd(bpy)-induced [Ca2+]i elevation [1]: suppressed by neither
Competition of FITM-Cy3 fluorescence in the molecular layer [2, 5]: disappearance of fluorescence
FITM-Cy3 signal with FITM (+), Ave (Fig.5d) [2, 6]: 0.1786
FITM-Cy3 signal with FITM (+), individual values #1-#5 (Fig.5d) [2, 6]: 0.1218 and 0.08484 and 0.2076 and 0.2159 and 0.2628
Competition of FITM-Cy3 fluorescence in the molecular layer [3, 5]: disappearance of fluorescence
FITM-Cy3 signal with FITM (+), Ave (Fig.5d) [3, 7]: 0.2072
FITM-Cy3 signal with FITM (+), individual values #1-#5 (Fig.5d) [3, 7]: 0.08371 and 0.2036 and 0.1822 and 0.2639 and 0.3024
Effect of pre-treated inhibitor on 10 µM Pd(bpy)-induced Ca2+ responses [4]: inhibited
